The assay has as its target T1, IL-17A/A (Homo sapiens, UniProt Q16552).
T1 construct: purchased Genscript Z03228
T1 sequence (Q16552 24-155): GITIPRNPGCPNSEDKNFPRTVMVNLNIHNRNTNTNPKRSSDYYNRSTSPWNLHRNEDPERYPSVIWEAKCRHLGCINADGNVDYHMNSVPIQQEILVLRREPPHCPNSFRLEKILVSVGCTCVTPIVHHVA
The assay can be described thus: HEK-Blue IL-17A/A inhibition assay (SEAP reporter). It counts as cell-based. Conditions: HEK-Blue cells (HEK 293 expressing IL-17RA, IL-17RC, Act1); IL-17A/A stimulation; 20 hours; SEAP read at A630; 4-parameter fit. Here is the method: The HEK-Blue #NC108637 […]. Cells were grown and prepared for assays according to the manufacturer's instructions. This cell line consists of HEK 293 cells that were designed to expressed IL-17R^A, IL-17RC, and the ActI adapter molecule, the combination of which. when stimulated by IL-17A/A activates a NFtcB promoter and drives expression of a recombinant Secreted Alkaline Phosphatase (SEAP) geneprotein. Media from the cells is then added to a development reagent (Quanti-Blue Substrate, Fisher #NC971 1613), and read at A630.
Compounds were titrated in DMSO. with a top final compound concentration of 10 uM, 1 uM, or 0.3 uM, and added to the cells immediately before adding IL-17A/A (Genscript #Z03228). The cells, compound, and IL-17A/A were then incubated for 20 hours before media was removed for SEAP analysis. The resulting inhibition curve was then analyzed using Graphpad Prism 7.0, and IC50 values were determined using a 4-parameter nonlinear fit. DMSO was added to a universal final concentration of 0.1% to optimze background.

Broadly, the IC50 is the midpoint of a concentration-inhibition curve.

As to `C=Cc1cc(NC(=O)[C@@H](NC(=O)c2ccnn2C(C)C)C(C2CC2)C2CC2)c(F)cc1C(C)C(=O)NCC(F)(F)F` (mixture of isomers) [Compound 110, N-((2S)-1,1-dicyclopropyl-3-((2-fluoro-4-(1-oxo-1-((2,2,2-trifluoroethyl)amino)propan-2-yl)-5-vinylphenyl)amino)-3-oxopropan-2-yl)-1-isopropyl-1H-pyrazole-5-carboxamide], the IC50 was < 0.1 µM.
As for `CC(C(=O)NCC(F)(F)F)c1cc(F)c(NC(=O)[C@@H](NC(=O)c2ccnn2C(C)C)C(C2CC2)C2CC2)cc1Br` (mixture of isomers) [Compound 113, N-((2S)-1-((5-bromo-2-fluoro-4-(1-oxo-1-((2,2,2-trifluoroethyl)amino)propan-2-yl)phenyl)amino)-3,3-dicyclopropyl-1-oxopropan-2-yl)-1-isopropyl-1H-pyrazole-5-carboxamide], the figure is 0.1 to 1 µM.
Take `CCn1nccc1C(=O)N[C@H](C(=O)Nc1ccc([C@@H](C)C(=O)N(C)CC(F)(F)F)cc1F)C1CCCCCC1` (single isomer, unassigned) [Compound 3]: the IC50 lay within 0.1 to 1 µM.
Turning to `CCn1nccc1C(=O)N[C@H](C(=O)Nc1ccc([C@H](C)C(=O)N(C)CC(F)(F)F)cc1F)C1CCCCCC1` (single isomer, unassigned) [Compound 4], the IC50 is < 0.1 µM.
As for `CC(C)n1nccc1C(=O)N[C@H](C(=O)Nc1ccc([C@H](C)C(=O)N2CCOCC2C(F)(F)F)cc1F)C(C1CC1)C1CC1` (single isomer, unassigned) [Compound 18], the figure is < 0.1 µM.
To `CC(C)n1nccc1C(=O)N[C@H](C(=O)Nc1ccc([C@H](C)C(=O)N2CCOCC2C(F)(F)F)cc1F)C(C1CC1)C1CC1` (single isomer, unassigned) [Compound 19] belongs 0.1 to 1 µM; to `CC(C)n1nccc1C(=O)N[C@H](C(=O)Nc1ccc([C@H](C)C(=O)N2CCCCC2C(F)(F)F)cc1F)C(C1CC1)C1CC1` (single isomer, unassigned) [Compound 20], 0.1 to 1 µM; to `CC(C)n1nccc1C(=O)N[C@H](C(=O)Nc1ccc([C@H](C)C(=O)N2CCCCC2C(F)(F)F)cc1F)C(C1CC1)C1CC1` (single isomer, unassigned) [Compound 21], 0.1 to 1 µM.
To `CC(C)n1nccc1C(=O)N[C@H](C(=O)Nc1ccc([C@H](C)C(=O)NC(CO)C(F)(F)F)cc1F)C(C1CC1)C1CC1` (single isomer, unassigned) [Compound 28] belongs 0.1 to 1 µM; to `CC(C)n1nccc1C(=O)N[C@H](C(=O)Nc1ccc([C@H](C)C(=O)NC(CO)C(F)(F)F)cc1F)C(C1CC1)C1CC1` (single isomer, unassigned) [Compound 29], < 0.1 µM; to `CC(C)n1nccc1C(=O)N[C@H](C(=O)Nc1ccc([C@H](C)C(=O)N2CCOC2C(F)(F)F)cc1F)C(C1CC1)C1CC1` (single isomer, unassigned) [Compound 48], 0.1 to 1 µM.
`CC(C)n1nccc1C(=O)N[C@H](C(=O)Nc1ccc([C@H](C)C(=O)N2CCOC2C(F)(F)F)cc1F)C(C1CC1)C1CC1` (single isomer, unassigned) [Compound 49]: the IC50 lay in the range of 0.1 to 1 µM.
`CCN(CC(F)(F)F)C(=O)C(C)c1ccc(NC(=O)[C@@H](NC(=O)c2ccnn2CC)C2CCCCCC2)c(F)c1` (single isomer, unassigned) [Compound 69]: the IC50 was > 1 µM.
With `CCN(CC(F)(F)F)C(=O)C(C)c1ccc(NC(=O)[C@@H](NC(=O)c2ccnn2CC)C2CCCCCC2)c(F)c1` (single isomer, unassigned) [Compound 70], the IC50 lay in the range of 0.1 to 1 µM.
To `CCn1nccc1C(=O)N[C@H](C(=O)Nc1cc(C)c(C(C)C(=O)N(C)CC(F)(F)F)cc1F)C(C1CC1)C1CC1` (single isomer, unassigned) [Compound 76] belongs < 0.1 µM; to `CCn1nccc1C(=O)N[C@H](C(=O)Nc1cc(C)c(C(C)C(=O)N(C)CC(F)(F)F)cc1F)C(C1CC1)C1CC1` (single isomer, unassigned) [Compound 77], 0.1 to 1 µM.
In the case of `CCC(C1CCC1)[C@H](NC(=O)c1ccnn1CC)C(=O)Nc1ccc([C@H](C)C(=O)NCC(F)(F)F)cc1F` (single isomer, unassigned) [Compound 86], the IC50 lay in the range of 0.1 to 1 µM.
To `CCC(C1CCC1)[C@H](NC(=O)c1ccnn1CC)C(=O)Nc1ccc([C@H](C)C(=O)NCC(F)(F)F)cc1F` (single isomer, unassigned) [Compound 87] belongs 0.1 to 1 µM; to `CC(CN1CCOCC1)n1nccc1C(=O)N[C@H](C(=O)Nc1ccc([C@H](C)C(=O)NCC(F)(F)F)cc1F)C(C1CC1)C1CC1` (single isomer, unassigned) [Compound 92], 0.1 to 1 µM.
As for `CC(CN1CCOCC1)n1nccc1C(=O)N[C@H](C(=O)Nc1ccc([C@H](C)C(=O)NCC(F)(F)F)cc1F)C(C1CC1)C1CC1` (single isomer, unassigned) [Compound 93], the figure is 0.1 to 1 µM; as for `C[C@H](C(=O)NCC(F)(F)F)c1ccc(NC(=O)[C@@H](NC(=O)c2ccnn2C2CCCNC2)C(C2CC2)C2CC2)c(F)c1` (single isomer, unassigned) [Compound 96], > 1 µM.
As for `C[C@H](C(=O)NCC(F)(F)F)c1ccc(NC(=O)[C@@H](NC(=O)c2ccnn2C2CCCNC2)C(C2CC2)C2CC2)c(F)c1` (single isomer, unassigned) [Compound 97], the figure is > 1 µM.
As to `Cc1cc(NC(=O)[C@@H](NC(=O)c2ccnn2C(C)C)C(C2CC2)C2CC2)c(F)cc1[C@H](C)C(=O)NCC(F)(F)F` (single isomer, unassigned) [Compound 98], the IC50 is < 0.1 µM.
For `Cc1cc(NC(=O)[C@@H](NC(=O)c2ccnn2C(C)C)C(C2CC2)C2CC2)c(F)cc1[C@@H](C)C(=O)NCC(F)(F)F` (single isomer, unassigned) [Compound 99], the IC50 was > 1 µM.
As to `CCn1nccc1C(=O)N[C@H](C(=O)Nc1ccc(C(COC)C(=O)N(C)CC(F)(F)F)cc1F)C1CCCCCC1` (single isomer, unassigned) [Compound 102, N—((I S)-1-cycloheptyl-2-((2-fluoro-4-(3-methoxy-1-(methyl(2,2,2-trifluoroethyl)amino)-1-oxopropan-2-yl)phenyl)amino)-2-oxoethyl)-1-ethyl-1H-pyrazole-5-carboxamide], the IC50 is > 1 µM.
As to `CCn1nccc1C(=O)N[C@H](C(=O)Nc1ccc(C(COC)C(=O)N(C)CC(F)(F)F)cc1F)C1CCCCCC1` (single isomer, unassigned) [Compound 103], the half-maximal inhibitory concentration (IC50) was < 0.1 µM.
As for `COCC(C(=O)NCC(F)(F)F)c1ccc(NC(=O)[C@@H](NC(=O)c2ccnn2C(C)C)C(C2CC2)C2CC2)c(F)c1` (single isomer, unassigned) [Compound 104], the figure is > 1 µM; as for `COCC(C(=O)NCC(F)(F)F)c1ccc(NC(=O)[C@@H](NC(=O)c2ccnn2C(C)C)C(C2CC2)C2CC2)c(F)c1` (single isomer, unassigned) [Compound 105], < 0.1 µM; as for `CC(C(=O)NCC(F)(F)F)c1cc(F)c(NC(=O)[C@@H](NC(=O)c2ccnn2C(C)C)C(C2CC2)C2CC2)cc1Cl` (single isomer, unassigned) [Compound 108], 0.1 to 1 µM.
To `CC(C(=O)NCC(F)(F)F)c1cc(F)c(NC(=O)[C@@H](NC(=O)c2ccnn2C(C)C)C(C2CC2)C2CC2)cc1Cl` (single isomer, unassigned) [Compound 109] belongs 0.1 to 1 µM.

The values are drawn from patent US20240376056A1, “PHENYL ACETAMIDE BASED IL-17A MODULATORS AND USES THEREOF” (DiCE Alpha, Inc., priority 2021, published 2024).
